Measurements as given in patent publication US20220142161A1, “METHOD OF IMPROVING THE GROWTH AND/OR THE YIELD OF PLANTS GROWN ON AGRICULTURALLY OR HORTICULTURALLY UTILIZED SUBSTRATES BY APPLYING A NITRICATION INHIBITOR ADDED TO THE IRRIGATION SYSTEM” (BASF SE, priority 2019, published 2022).

Tests used:
[1] = test system: nitrification in sandy loam soil; assay: Leaching experiment in soil column with simulated drip irrigation; details: AS 90 mg N; NI/N (NH4) 0.8%; 9 days at 20° C., then about 43 mm precipitation; lower value = better inhibition
Procedure: (§1) In the examples a standardized sandy loam soil with coarse and very light texture was used.
100 g of air dried soil was filled in a 150 mL free draining column made of glass. Soil was moistened with deionized water to 50% of its water holding capacity. Then, the filled column was incubated for 24 h at 20° C. A solution of ammonium sulfate and optionally the nitrogen inhibitor in deionized water was deposited on the soil by means of a pipette to simulate drip irrigation. The amount of ammonium sulfate corresponds to 90 mg of nitrogen (N). The columns were then incubated for 9 days at 20° C. Then, deionized water was dripped to the soil corresponding to a precipitation of about 43 mm. Thereafter, the water was removed from the soil by applying a negative pressure until the moisture in the soil was 50% of its water holding capacity. The removed water (percolate) was collected and analyzed with regard to the total quantity of inorganic nitrogen (NH4 and NO3) as described for example 1. Since NH4 is more strongly bound to the soil compared to NO3 a lower nitrogen value indicates a better inhibition of nitrification.

[2] = test system: nitrification in sandy loam soil (soil microbial biomass); assay: Soil incubation with simulated drip irrigation: NH4 recovery and nitrification inhibition; details: for % NH4 recovery of applied NH4: 20° C., ammonium sulfate; for % nitrification inhibition: calculated according to equation 1
Procedure: as §1
For each test, three 500 ml plastic bottles were filled with 100 g of air dried soil each. Soil was moistened with deionized water to 50% of its water holding capacity. Then, the soil was incubated for two weeks at 20° C. to activate the microbial biomass. Ammonium sulfate was dissolved in deionized water in an amount corresponding to a nitrogen concentration of 10 g/L and supplemented by the desired amount of nitrogen inhibitor in an amount given in table 1. To each bottle 1 ml of the test solution was added by dripping the test solution with a pipette to the soil to simulate drop irrigation. Bottles were loosely capped to avoid contamination by dirt but to allow air exchange. The bottles were incubated at 20° C. for 0 to 42 days.
For determining the nitrogen content in the soil after incubation, to each bottle 300 mL of a 1% by weight solution of potassium sulfate in deionized water was added and the bottle was shaken for 2 h in a horizontal shaker at 150 rpm. Then the whole content of the bottle was filtered through a paper filter (MN 807 of Macherey-Nagel) and the filtrate was analyzed photometrically at 550 nm with respect to ammonium and nitrate by means of an auto analyzer AA11 of Merck.
Inhibition of nitrification was calculated by the following equation 1 (Bohland equation, DD 123771):
N (NO3) 1=Concentration of nitrogen contributed by NO3 without NI at the end of incubation
N (NO3) […]=Concentration of nitrogen contributed by NO3 with NI at the end of incubation
N (NO3) […]=Concentration of nitrogen contributed by NO3 at the beginning of incubation
The Examples were carried out in two separate series 1 and 2. All results are averages of 3 replications.

[3] = first series, DAT14, NI/N (NH4) 0.8%
[4] = first series, DAT28, NI/N (NH4) 0.8%
[5] = first series, DAT42, NI/N (NH4) 0.8%
[6] = second series, DAT7, NI/N (NH4) 0.4%
[7] = second series, DAT14, NI/N (NH4) 0.4%
[8] = second series, DAT28, NI/N (NH4) 0.4%
[9] = second series, DAT42, NI/N (NH4) 0.4%
[10] = first series, DAT14, NI/N (NH4) 10%
[11] = first series, DAT28, NI/N (NH4) 10%
[12] = first series, DAT42, NI/N (NH4) 10%
[13] = second series, DAT7, NI/N (NH4) 0.8%
[14] = second series, DAT14, NI/N (NH4) 0.8%
[15] = second series, DAT28, NI/N (NH4) 0.8%
[16] = second series, DAT42, NI/N (NH4) 0.8%

## 2-(3,4-dimethyl-1H-pyrazol-1-yl)succinic acid and 2-(4,5-dimethyl-1H-pyrazol-1-yl)succinic acid [DMPSA]
[1]
  Total N: total quantity of inorganic nitrogen (NH4 and NO3) in percolate: 6.0 mg
[2]; conclusion from tables 1 and 2
  inhibition of nitrification in drip irrigation compared to DCD and Nitrapyrin: longer and stronger inhibition of nitrification
[2]; [3]
  % NH4 recovery of applied NH4: 82%
  % nitrification inhibition: 74%
[2]; [4]
  % NH4 recovery of applied NH4: 48%
  % nitrification inhibition: 59%
[2]; [5]
  % NH4 recovery of applied NH4: 27%
  % nitrification inhibition: 34%
[2]; half amount of DMPSA gives comparable nitrification inhibition
  effectiveness relative to DMPP: almost twice effective as DMPP
[2]; [6]
  % NH4 recovery of applied NH4: 82%
  % nitrification inhibition: 76%
[2]; [7]
  % NH4 recovery of applied NH4: 73%
  % nitrification inhibition: 75%
[2]; [8]
  % NH4 recovery of applied NH4: 61%
  % nitrification inhibition: 66%
[2]; [9]
  % NH4 recovery of applied NH4: 63%
  % nitrification inhibition: 56%

## N#CN=C(N)N [DCD, dicyandiamide]
[2]; [10]
  % NH4 recovery of applied NH4: 63%
  % nitrification inhibition: 59%
[2]; [11]
  % NH4 recovery of applied NH4: 13%
  % nitrification inhibition: 15%
[2]; [12]
  % NH4 recovery of applied NH4: 0%
  % nitrification inhibition: 3%

## Cc1c[nH]nc1C.O=P(O)(O)O [DMPP, 3,4-dimethyl pyrazole phosphate]
[1]
  Total N: total quantity of inorganic nitrogen (NH4 and NO3) in percolate: 6.3 mg
[2]; [13]
  % NH4 recovery of applied NH4: 75%
  % nitrification inhibition: 70%
[2]; [14]
  % NH4 recovery of applied NH4: 71%
  % nitrification inhibition: 76%
[2]; [15]
  % NH4 recovery of applied NH4: 64%
  % nitrification inhibition: 66%
[2]; [16]
  % NH4 recovery of applied NH4: 66%
  % nitrification inhibition: 61%

## Clc1cccc(C(Cl)(Cl)Cl)n1 [Nitrapyrin, 2-chloro-6-(trichloromethyl)pyridine]
[1]
  Total N: total quantity of inorganic nitrogen (NH4 and NO3) in percolate: 7.1 mg
[2]; [3]
  % NH4 recovery of applied NH4: 31%
  % nitrification inhibition: 33%
[2]; [4]
  % NH4 recovery of applied NH4: 3%
  % nitrification inhibition: 4%
[2]; [5]
  % NH4 recovery of applied NH4: 0%
  % nitrification inhibition: −2%
